Here are results for seven compounds from ChEMBL document CHEMBL1201862, “PubChem BioAssay data set” (2004).

Among the test systems are U-251; A498; MDA-N; SW-620; UO-31; K562; COLO 205; OVCAR-5; SN12C; NCI-H522; TK-10; HCT-15; PC-3; KM12; A549; HCC 2998; RPMI-8226; MDA-MB-231; UACC-62; MCF7.
What all share (experiment): NCI anticancer screen, dose series, 48 h

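Following 48 hours of exposure in 96-well plates, responses at five concentrations were used to interpolate endpoints linearly. GI50 is the concentration that inhibits growth by half.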 Active and inactive are the calls of the source. Rule as the data show it: active = GI50 up to about 1.1 µM and inactive = higher.

With `CC1=C2O[C@]3(O)C=C2C(=C(O)C1=O)[C@@H]1O[C@H](CC[C@H](C)/C=C(\C)C[C@@H](C)C[C@@H]3C)[C@H](C)[C@H](O)[C@H]1C` [KENDOMYCIN], the GI50 was 0.326 µM (active) in the experiment with U-251; 1.58 µM (inactive) in the experiment with A498; 0.166 µM (active) with MDA-N; 0.582 µM (active) in the experiment on SW-620; 0.193 µM (active) with UO-31; 0.166 µM (active) with K562. For the same compound, the GI50 was 0.125 µM (active) in the experiment on COLO 205; 1.31 µM (inactive) in the experiment with OVCAR-5; 0.811 µM (active) in the experiment with SN12C; 0.218 µM (active) in the experiment on NCI-H522; 0.155 µM (active) with TK-10; 0.124 µM in the experiment on HCT-15. Moreover, the GI50 is 0.269 µM (active) in the experiment on PC-3; 0.661 µM (active) with KM12; 0.982 µM (active) in the experiment with A549; 0.167 µM (active) with HCC 2998; 0.118 µM (active) in the experiment on RPMI-8226; 0.151 µM (active) in the experiment with MDA-MB-231. For the same compound, the values for the GI50 with UACC-62 and in the experiment on MCF7 were 0.233 µM (active) and 0.179 µM (active), respectively.

As to `CC(C)NCC(O)c1ccc(O)c2ncccc12` (stereo not given), the GI50 with U-251 was 31.5 µM (inactive); in the experiment on A498, > 100 µM (inactive); with MDA-N, 91.2 µM (inactive); with SW-620 it was 36.5 µM (inactive); in the experiment on UO-31, 67.6 µM (inactive); in the experiment with K562, 19.5 µM (inactive). The GI50 is 18.7 µM (inactive) with COLO 205; > 100 µM (inactive) in the experiment with OVCAR-5; 30.3 µM (inactive) in the experiment with SN12C; 47.2 µM (inactive) in the experiment on NCI-H522; 47.3 µM (inactive) in the experiment with TK-10; 25.9 µM in the experiment with HCT-15. Besides, the GI50 in the experiment with PC-3 is 46.5 µM (inactive); in the experiment on KM12, 54.6 µM (inactive); in the experiment on A549, 6.82 µM (inactive); in the experiment with HCC 2998, 46 µM (inactive); with RPMI-8226 it was 49.1 µM (inactive); in the experiment on MDA-MB-231, 27 µM (inactive). Besides, the GI50 in the experiment with UACC-62 is 60 µM (inactive); in the experiment on MCF7, 7.28 µM (inactive).

As to `COc1ccc(C(C)c2cc3c(cc2OC)OCO3)cc1` (stereo not given), the GI50 in the experiment with U-251 was 0.229 µM (active); with A498 it was 0.646 µM (active); in the experiment on MDA-N it was 0.019 µM (active); in the experiment on SW-620 it was 0.0828 µM (active); in the experiment with UO-31 it was 0.272 µM (active); in the experiment on K562, 0.0389 µM (active). The GI50 is 0.135 µM (active) in the experiment with COLO 205; 3.48 µM (inactive) with OVCAR-5; 0.378 µM (active) in the experiment with SN12C; 0.0455 µM (active) in the experiment with NCI-H522; 8.95 µM (inactive) in the experiment with TK-10; 0.0723 µM in the experiment with HCT-15. Moreover, the GI50 was 0.0715 µM (active) with PC-3; 0.119 µM (active) in the experiment with KM12; 0.218 µM (active) in the experiment on A549; 0.193 µM (active) in the experiment on HCC 2998; 0.122 µM (active) with RPMI-8226; 0.112 µM (active) with MDA-MB-231. The GI50 in the experiment on UACC-62 is 0.2 µM (active); with MCF7, 0.0461 µM (active).

In the case of `CCOC(=O)c1ccc(-c2cccs2)[nH]1`, the GI50 with U-251 is > 76.4 µM (inactive); in the experiment with A498, > 55.5 µM (inactive); with MDA-N, 66.8 µM (inactive); with SW-620, > 84.7 µM (inactive); in the experiment with UO-31, 50 µM (inactive); in the experiment on K562, 71.3 µM (inactive). Further, the GI50 in the experiment on COLO 205 was 60.7 µM (inactive); in the experiment with OVCAR-5, > 57 µM (inactive); in the experiment on SN12C it was > 100 µM (inactive); with NCI-H522 it was 32.7 µM (inactive); in the experiment with TK-10, > 65.3 µM (inactive); with HCT-15 it was 26.9 µM. In addition, the GI50 is 72.6 µM (inactive) in the experiment with PC-3; > 100 µM (inactive) with KM12; > 62.5 µM (inactive) in the experiment on A549; > 100 µM (inactive) with HCC 2998; > 70.8 µM (inactive) in the experiment with RPMI-8226; > 61.8 µM (inactive) in the experiment on MDA-MB-231. Further, the GI50 in the experiment on UACC-62 is 52.7 µM (inactive); in the experiment with MCF7 it was 53.7 µM (inactive).

`COC(=O)c1ccc2c(c1)C(NC(C)=O)CCc1cc(OC)c(OC)c(OC)c1-2` (stereo not given): the GI50 in the experiment with U-251 is < 0.0117 µM (active); in the experiment on A498, 0.0133 µM (active); in the experiment with MDA-N it was 0.0113 µM (active); in the experiment on SW-620, 0.0129 µM (active); in the experiment on UO-31, 0.0721 µM (active); in the experiment with K562, 0.0128 µM (active). Moreover, the GI50 in the experiment on COLO 205 was 0.0119 µM (active); with OVCAR-5, 0.112 µM (active); in the experiment on SN12C it was 0.0223 µM (active); in the experiment with NCI-H522, 0.018 µM (active); in the experiment on TK-10, 16.9 µM (inactive); in the experiment on HCT-15 it was 0.0366 µM. For the same compound, the GI50 with PC-3 was < 0.0127 µM (active); with KM12, < 0.0115 µM (active); with A549, 0.018 µM (active); in the experiment with HCC 2998 it was 0.0327 µM (active); with RPMI-8226 it was 0.0151 µM (active); in the experiment on MDA-MB-231 it was < 0.02 µM (active). Moreover, the GI50 with UACC-62 was 0.0131 µM (active); in the experiment on MCF7 it was 0.0612 µM (active).

Take `NC1=CN(CCCO)C2=N/C(=C\c3ccco3)C(=O)N12`: the GI50 was > 100 µM (inactive) in the experiment with U-251; > 100 µM (inactive) in the experiment with A498; > 100 µM (inactive) in the experiment with MDA-N; > 100 µM (inactive) with SW-620; 94 µM (inactive) in the experiment with UO-31; > 100 µM (inactive) in the experiment on K562. Moreover, the GI50 in the experiment on COLO 205 is > 100 µM (inactive); with OVCAR-5 it was > 100 µM (inactive); in the experiment with SN12C, > 100 µM (inactive); in the experiment on NCI-H522 it was > 100 µM (inactive); in the experiment with TK-10, > 100 µM (inactive); with HCT-15 it was greater than 100 µM. The GI50 in the experiment on PC-3, in the experiment with KM12, in the experiment with A549, in the experiment on HCC 2998, with RPMI-8226 and in the experiment on MDA-MB-231 was > 100 µM (inactive) each time. Also, the GI50 with UACC-62 and in the experiment on MCF7 was > 100 µM (inactive) each time.

As to `CC(=O)OC1CC(n2cc(F)c(=O)[nH]c2=O)OC1CO` (stereo not given), the GI50 with U-251 is 5.69 µM (inactive); in the experiment with A498, 0.0693 µM (active); with MDA-N, 24.3 µM (inactive); in the experiment with SW-620, 10.8 µM (inactive); in the experiment with UO-31, 0.635 µM (active); in the experiment on K562 it was 15.1 µM (inactive). In addition, the GI50 was 8.75 µM (inactive) in the experiment with COLO 205; > 46.7 µM (inactive) in the experiment on OVCAR-5; 1.23 µM (inactive) in the experiment with SN12C; 2.15 µM (inactive) with NCI-H522; 15.9 µM (inactive) in the experiment on TK-10; 16.1 µM in the experiment on HCT-15. In addition, the GI50 with PC-3 is 16.9 µM (inactive); with KM12 it was > 93.3 µM (inactive); in the experiment on A549 it was 0.143 µM (active); in the experiment with HCC 2998 it was < 0.0279 µM (active); with RPMI-8226, 21.9 µM (inactive); in the experiment on MDA-MB-231 it was > 55.2 µM (inactive). In addition, the GI50 in the experiment on UACC-62 is 0.42 µM (active); with MCF7 it was 0.22 µM (active).
